PubChem BioAssay (NCI)
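Abbreviation: GI50, concentration required for 50% inhibition of growth. TGI: concentration producing complete growth inhibition.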

Key:
Experiment in all cases: NCI tumour cell line growth inhibition, 384-well format
[1] = system: SF-295 CNS
[2] = system: BT-549 breast
[3] = system: SK-OV-3 ovarian
[4] = system: LOX IMVI melanoma
[5] = system: DU-145 prostate
[6] = system: OVCAR-3 ovarian
[7] = system: SK-MEL-5 melanoma
[8] = system: HCT-116 colon
[9] = system: OVCAR-8 ovarian
[10] = system: NCI-H226 lung
[11] = system: A498 renal
[12] = system: UACC-257 melanoma
[13] = system: MDA-MB-468 breast
[14] = system: RPMI-8226 leukemia
[15] = system: TK-10 renal
[16] = system: CCRF-CEM leukemia
[17] = system: NCI-H460 NSCLC
[18] = system: M14 melanoma
[19] = system: RXF 393 renal
[20] = system: HOP-62 NSCLC
[21] = system: HOP-92 NSCLC
[22] = system: SN12C renal
[23] = system: SK-MEL-28 melanoma
[24] = system: HCT-15 colon
[25] = system: K-562 leukemia
[26] = system: MCF7 breast
[27] = system: HL-60(TB) leukemia
[28] = system: HS 578T breast
[29] = system: PC-3 prostate
[30] = system: HT29 colon
[31] = system: NCI-H23 lung
[32] = system: SR leukemia
[33] = system: A549 NSCLC
[34] = system: CAKI-1 renal
[35] = system: T-47D breast
[36] = system: 786-0 renal
[37] = system: SW-620 colon
[38] = system: SF-268 CNS
[39] = system: SNB-75 CNS
[40] = system: SNB-19 CNS
[41] = system: HCC-2998 colon
[42] = system: OVCAR-4 ovarian
[43] = system: MOLT-4 leukemia
[44] = system: UO-31 renal
[45] = system: KM12 colon
[46] = system: MDA-MB-435 melanoma
[47] = system: UACC-62 melanoma
[48] = system: SF-539 CNS
[49] = system: U251 glioblastoma
[50] = system: IGROV1 ovarian
[51] = system: EKVX NSCLC
[52] = system: MDA-MB-231 breast
[53] = system: NCI-H322M lung
[54] = system: NCI-H522 lung
[55] = system: MALME-3M melanoma
[56] = system: NCI/ADR-RES ovarian
[57] = system: COLO 205 colon
[58] = system: ACHN renal
[59] = system: OVCAR-5 ovarian

SMILES: Nc1cc(C(F)(F)F)c(-c2nc(N3CCOCC3)nc(N3CCOCC3)n2)cn1
- GI50 [1]: 405 nM
- TGI [1]: 2440 nM
- GI50 [2]: 678 nM
- TGI [2]: 4420 nM
- GI50 [3]: 332 nM
- TGI [3]: 2040 nM
- GI50 [4]: 1570 nM
- TGI [4]: 9360 nM
- GI50 [5]: 847 nM
- TGI [5]: 21300 nM
- GI50 [6]: 354 nM
- TGI [6]: 3920 nM
- GI50 [7]: 503 nM
- TGI [7]: 2810 nM
- GI50 [8]: 833 nM
- TGI [8]: 22500 nM
- GI50 [9]: 1120 nM
- TGI [9]: 93600 nM
- GI50 [10]: 563 nM
- TGI [10]: 4350 nM
- GI50 [11]: 320 nM
- TGI [11]: 2260 nM
- GI50 [12]: 1700 nM
- TGI [12]: 20800 nM
- GI50 [13]: 353 nM
- TGI [13]: 2200 nM
- GI50 [14]: 221 nM
- TGI [14]: 1270 nM
- GI50 [15]: 432 nM
- TGI [15]: 3870 nM
- GI50 [16]: 1340 nM
- TGI [16]: 10900 nM
- GI50 [17]: 246 nM
- TGI [17]: 10400 nM
- GI50 [18]: 616 nM
- TGI [18]: 12500 nM
- GI50 [19]: 1150 nM
- TGI [19]: 4960 nM
- GI50 [20]: 1310 nM
- TGI [20]: 14100 nM
- GI50 [21]: 274 nM
- TGI [21]: 2120 nM
- GI50 [22]: 195 nM
- TGI [22]: 2300 nM
- GI50 [23]: 461 nM
- TGI [23]: 6540 nM
- GI50 [24]: 497 nM
- TGI [24]: > 100000 nM
- GI50 [25]: 2780 nM
- TGI [25]: 40500 nM
- GI50 [26]: 151 nM
- TGI [26]: 11900 nM
- GI50 [27]: 170 nM
- TGI [27]: 3430 nM
- GI50 [28]: 276 nM
- TGI [28]: 1860 nM
- GI50 [29]: 291 nM
- TGI [29]: 4270 nM
- GI50 [30]: 554 nM
- TGI [30]: 14800 nM
- GI50 [31]: 552 nM
- TGI [31]: 15900 nM
- TGI [32]: 255 nM
- GI50 [33]: 902 nM
- TGI [33]: 9000 nM
- GI50 [34]: 292 nM
- TGI [34]: 2950 nM
- GI50 [35]: 107 nM
- TGI [35]: 583 nM
- GI50 [36]: 1320 nM
- TGI [36]: 12100 nM
- GI50 [37]: 2600 nM
- TGI [37]: > 100000 nM
- GI50 [38]: 1460 nM
- TGI [38]: 18200 nM
- GI50 [39]: 288 nM
- TGI [39]: 2920 nM
- GI50 [40]: 8530 nM
- TGI [40]: 50200 nM
- GI50 [41]: 1100 nM
- TGI [41]: 48900 nM
- GI50 [42]: 1480 nM
- TGI [42]: 7900 nM
- GI50 [43]: 293 nM
- TGI [43]: 1610 nM
- GI50 [44]: 426 nM
- TGI [44]: 19200 nM
- GI50 [45]: 1270 nM
- TGI [45]: 14600 nM
- GI50 [46]: 1600 nM
- TGI [46]: 9730 nM
- GI50 [47]: 520 nM
- TGI [47]: 3790 nM
- GI50 [48]: 1150 nM
- TGI [48]: 13700 nM
- GI50 [49]: 3230 nM
- TGI [49]: 95500 nM
- GI50 [50]: 119 nM
- TGI [50]: 468 nM
- GI50 [51]: 342 nM
- TGI [51]: 3530 nM
- GI50 [52]: 834 nM
- TGI [52]: 38700 nM
- GI50 [53]: 534 nM
- TGI [53]: 11500 nM
- GI50 [54]: 360 nM
- TGI [54]: 10200 nM
- GI50 [55]: 174 nM
- TGI [55]: 1030 nM
- GI50 [56]: 1920 nM
- TGI [56]: 17300 nM
- GI50 [57]: 544 nM
- TGI [57]: 9660 nM
- GI50 [58]: 570 nM
- TGI [58]: 8660 nM

SMILES: CNS(=O)(=O)Nc1nccc(Cc2c(C)c3ccc(Oc4ncccn4)cc3oc2=O)c1F
- GI50 [59]: 41 nM
- TGI [59]: > 100000 nM
- GI50 [1]: 68600 nM
- TGI [1]: > 100000 nM
- GI50 [2]: 39600 nM
- TGI [2]: > 100000 nM
- GI50 [3]: 21400 nM
- TGI [3]: > 100000 nM
- GI50 [4]: 164 nM
- TGI [4]: 5490 nM
- GI50 [5]: 26400 nM
- TGI [5]: > 100000 nM
- GI50 [6]: > 100000 nM
- TGI [6]: > 100000 nM
- GI50 [7]: 48 nM
- TGI [7]: 9680 nM
- GI50 [9]: 39200 nM
- TGI [9]: > 100000 nM
- GI50 [10]: 848 nM
- TGI [10]: > 100000 nM
- GI50 [11]: 13300 nM
- TGI [11]: > 100000 nM
- GI50 [12]: 12 nM
- TGI [12]: 52.9 nM
- GI50 [13]: 1750 nM
- TGI [13]: 5950 nM
- GI50 [14]: 41.5 nM
- TGI [14]: 20500 nM
- GI50 [15]: 7490 nM
- TGI [15]: > 100000 nM
- GI50 [16]: 5060 nM
- TGI [16]: 49100 nM
- GI50 [17]: 10200 nM
- TGI [17]: > 100000 nM
- GI50 [18]: < 10 nM
- TGI [18]: 102 nM
- GI50 [19]: 4820 nM
- TGI [19]: > 100000 nM
- GI50 [20]: 289 nM
- TGI [20]: > 100000 nM
- GI50 [21]: 236 nM
- TGI [21]: 3930 nM
- GI50 [22]: 72.4 nM
- TGI [22]: > 100000 nM
- GI50 [23]: 13.7 nM
- TGI [23]: 61.6 nM
- GI50 [24]: 4390 nM
- TGI [24]: > 100000 nM
- GI50 [25]: 433 nM
- TGI [25]: > 100000 nM
- GI50 [26]: > 100000 nM
- TGI [26]: > 100000 nM
- GI50 [27]: < 10 nM
- TGI [27]: > 100000 nM
- GI50 [28]: 7800 nM
- TGI [28]: > 100000 nM
- GI50 [29]: > 100000 nM
- TGI [29]: > 100000 nM
- GI50 [30]: 41.8 nM
- TGI [30]: > 100000 nM
- GI50 [31]: 45.9 nM
- TGI [31]: 2540 nM
- GI50 [32]: 2920 nM
- TGI [32]: 40900 nM
- GI50 [33]: 420 nM
- TGI [33]: > 100000 nM
- GI50 [34]: 319 nM
- TGI [34]: > 100000 nM
- GI50 [35]: 3670 nM
- TGI [35]: 83300 nM
- GI50 [36]: 98400 nM
- TGI [36]: > 100000 nM
- GI50 [37]: 16.7 nM
- TGI [37]: > 100000 nM
- GI50 [38]: > 100000 nM
- TGI [38]: > 100000 nM
- GI50 [39]: > 100000 nM
- TGI [39]: > 100000 nM
- GI50 [40]: 20900 nM
- TGI [40]: > 100000 nM
- GI50 [41]: 14.2 nM
- TGI [41]: 398 nM
- GI50 [42]: 413 nM
- TGI [42]: > 100000 nM
- GI50 [43]: 13000 nM
- TGI [43]: 82700 nM
- GI50 [44]: 14000 nM
- TGI [44]: > 100000 nM
- GI50 [45]: 181 nM
- TGI [45]: > 100000 nM
- GI50 [46]: 30.5 nM
- TGI [46]: > 100000 nM
- GI50 [47]: 12 nM
- TGI [47]: 138 nM
- GI50 [48]: 12900 nM
- TGI [48]: > 100000 nM
- GI50 [49]: 5570 nM
- TGI [49]: > 100000 nM
- GI50 [50]: 290 nM
- TGI [50]: > 100000 nM
- GI50 [51]: 6390 nM
- TGI [51]: > 100000 nM
- GI50 [52]: 73.1 nM
- TGI [52]: 43800 nM
- GI50 [53]: 549 nM
- TGI [53]: > 100000 nM
- GI50 [54]: 12500 nM
- TGI [54]: > 100000 nM
- GI50 [55]: < 10 nM
- TGI [55]: 12.4 nM
- GI50 [56]: 15200 nM
- TGI [56]: > 100000 nM
- GI50 [57]: 15.1 nM
- TGI [57]: 586 nM
- GI50 [58]: 4160 nM
- TGI [58]: > 100000 nM
